Results on 1 compound are retold here after article PMC8308845, “Discovery of Novel Chemical Series of OXA-48 β-Lactamase Inhibitors by High-Throughput Screening” (Pharmaceuticals, 2021).

One series has as its system E. coli ATCC25922. Description: MIC by broth microdilution, antibiotic-sensitive strain. The following applies: Escherichia coli, no β-lactam, BLI tested at 32 µg/mL, read-out: MIC, BLI alone. It counts as cell-based. From the text:
To evaluate the capability of restoring β-lactam susceptibility, the two most promising representatives of SC_2 (ID3) and SC_7 (ID2) were screened alone and in combination with ampicillin (AMP) and IMP against sensitive and resistant Gram-negative bacteria. Avibactam and tazobactam were also included in the MIC characterization as BLI reference compounds. Specifically, we used E. coli ATCC25922 as antibiotic-sensitive strain, while E. coli ATCC BAA-2523 and K. pneumoniae ATCC BAA-2524 as β-lactam-resistant bacteria, producing OXA-48 carbapenemase.
Test compounds and tazobactam were tested at 32 µg/mL, while avibactam was applied at 4 µg/mL. […] Both antibiotics were selected for the combination study as they can be hydrolyzed by the target OXA-48 enzyme.
MIC values were determined by the broth dilution method and interpreted using published guidelines described by Clinical and Laboratory Standards Institute (CLSI).
All BLIs were dissolved in 100% DMSO and they were tested at a fixed concentration of 32 µg/mL and 1% of DMSO final concentration. Avibactam was used as reference β-lactamase inhibitor. All antimicrobials were prepared in line with CLSI susceptibility testing standards. AMP (USP # 1033000; batch no. K1M493) was dissolved at 5.12 mg/mL, IMP (USP # 1337809; batch no. R038R0) and avibactam (Biochem # NXL 104; batch no. 20180726) were dissolved at 1.28 mg/mL in the respective solvents recommended by CLSI (2). Solutions at 4X the final concentrations of the test range were made in Cation adjusted Mueller-Hinton broth (CA-MHB, BD # 212322; batch no. 6117994; Expiry date: 29.02.2020) by serial dilutions, and then diluted 2-fold with CA-MHB (for antimicrobials alone), or with the BLIs/avibactam (for combinations of new/reference inhibitors and antimicrobials). Moreover, all BLIs were tested alone at a fixed concentration of 32 μg/mL. The final concentration of DMSO in the test tubes was 1% for each different combination.
50 μL of each well were then transferred from the masterblock into 96-well plates to whom were then added 50 μL of the final inoculum. MIC tests were performed by broth microdilution in line with CLSI susceptibility testing standards. Bacterial inocula were prepared at ca. 1 × 10^6 CFU/mL by diluting 100-fold a 0.5 McFarland suspension in CA-MHB with TES (TREK Diagnostic Systems, Product code: T3462; Batch: 356347; Expiry date: 12-Jun-2019). 50 μL of antibacterial solutions at 2 × the final concentrations were diluted 2-fold with 50 μL of inoculum to give a final inoculum of ca. 5 × 10^5 CFU/mL and desired test concentrations of antibacterial agents. Test plates were incubated according to CLSI guidelines and read visually. MIC values corresponded to the first well with no visible growth.
Background: In broth dilution the organism is exposed to a series of concentrations in liquid medium.

Another series concerns HepG2 cells. Description: Cytotoxicity assay (cell viability, alamarBlue). It counts as cell-based. The following applies: 48 h incubation, dose response. How it is done: (§1) Based on the promising BLI profile of compound ID2, a preliminary in vitro ADMET assessment in terms of kinetic solubility and cytotoxicity was carried out. […] Also, it was tested for cell viability in dose response against HepG2 cells, following 48 h incubation time.
Compound ID2 was tested in cell viability assays with HepG2 cells. The viability of cultured cells was evaluated using alamarBlue staining as described by Nociari et al.. Concentration–response curves were prepared for each compound by testing eight concentrations in triplicate with three-fold dilutions starting from 100 µM to […]. After incubation for 48 h at 37 °C, the percentage of control activity was calculated by comparing the fluorescence reading in the presence of the test compound to that in the absence of a test compound (control). IC50 values were determined by non-linear regression analysis of the concentration–response curves. These parameters were obtained by Hill equation curve fitting. Chlorpromazine was used as a reference compound.

Series [1] is described as follows: Aqueous solubility assay (PBS, pH 7.4). It is filed as physicochemical. The following applies: isotonic buffer pH 7.4, aqueous buffer, kinetic from dmso stock, buffered aqueous solution at pH 7.4, 200 μM nominal, 2% DMSO, room temperature. The protocol: as §1
Compound was dissolved in DMSO as stock solution and then added to isotonic buffer (pH 7.4) at a concentration of 200 μM (2% DMSO final concentration). After a 24 h incubation under shaking at room temperature, dissolved compound is measured by a chromatographic procedure with photodiode array detection. Metoprolol tartrate, rifampicin, ketoconazole, phenytoin, haloperidol, simvastatin, diethylstilbestrol, and tamoxifen were used as reference compounds for different solubility degrees.

For orientation: MIC means the smallest concentration in the dilution series that meets the test's criterion for growth inhibition. In general, kinetic solubility refers to the concentration staying in solution when a stock, usually in DMSO, is diluted into the medium.

Values after ≈ are worked out from the molar mass of the structure shown.

Turning to `CCc1ccc(-c2n[nH]c3nc(-c4ccc(C(=O)O)cc4)cc(C(=O)O)c23)cc1` [ID2], the MIC in the series on E. coli ATCC25922 was more than 32 µg/mL. The “cytotoxicity (no sign of toxicity up to the highest tested concentration)” value in the series on HepG2 cells is listed as more than 100 µM. Also, in series [1], the kinetic solubility at 24 h is 179 µM (≈ 69.5 µg/mL).
